Laboratory results taken from PubChem BioAssay (NCI).
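These data come from cells grown in 96-well plates and exposed to compound for 48 hours at five concentrations. Definition used: TGI = concentration required for complete inhibition of growth.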

Legend:
Test in all cases: DTP human tumour cell line panel, 48 h
IGROV1 ovarian = system: IGROV1 ovarian
MDA-MB-435 = system: MDA-MB-435
RXF 393 renal = system: RXF 393 renal
HOP-62 NSCLC = system: HOP-62 NSCLC
CAKI-1 renal = system: CAKI-1 renal
KM12 colon = system: KM12 colon
NCI-H23 lung = system: NCI-H23 lung
MALME-3M melanoma = system: MALME-3M melanoma
U251 CNS = system: U251 CNS
SK-MEL-5 melanoma = system: SK-MEL-5 melanoma

Row | SMILES | TGI (IGROV1 ovarian) [µM] | TGI (MDA-MB-435) [µM] | TGI (RXF 393 renal) [µM] | TGI (HOP-62 NSCLC) [µM] | TGI (CAKI-1 renal) [µM] | TGI (KM12 colon) [µM] | TGI (NCI-H23 lung) [µM] | TGI (MALME-3M melanoma) [µM] | TGI (U251 CNS) [µM] | TGI (SK-MEL-5 melanoma) [µM]
1 | C[n+]1ccccc1/C1=c2\cc/c([nH]2)=C(\c2cccc[n+]2C)C2=N/C(=C(/c3cccc[n+]3C)C3C=CC(N3)/C(c3cccc[n+]3C)=C3/C=CC1=N3)C=C2 | > 100 | > 100 | > 100 | > 100 | > 100 | > 100 | > 100 | > 100 | > 100 | > 100
2 | C[C@H]1O[C@@H](C(C)(C)C)OC(=O)[C@@H]1C(OC(=O)c1ccccc1)c1cccc2ccccc12 (stereo not given in full) | > 100 | > 100 | > 100 | > 100 | > 100 | > 100 | > 100 | > 100 | > 100 | > 100
3 | Cc1cc(N(CCC#N)CCC#N)ccc1/C(N=Nc1ccc([N+](=O)[O-])cc1)=N\NC(=O)c1ccccc1 | > 100 | > 100 | > 100 | > 100 | > 100 | > 100 | > 100 | > 100 | > 100 | > 100
4 | CN(C)c1ccc(/C=C(\NC(=O)c2ccccc2)C(=O)NC(Cc2c[nH]c3ccccc23)C(=O)O)cc1 (stereo not given) | > 100 | > 100 | > 100 | > 100 | > 100 | > 100 | > 100 | > 100 | > 100 | > 100
5 | [N-]=[N+]=Nc1ccc2c(c1)Sc1ccccc1N2CCCCN1CCN(C(=O)CCNC(=O)Cc2ccc(C(=O)c3ccccc3)cc2)CC1 | > 35.5 | 6.44 | > 100 | > 100 | > 100 | 23 | > 44 | 10.7 | > 24.6 | 4.39
6 | COc1ccc(/C=C/C(=O)Oc2ccccc2OC)cc1 | > 51.2 | > 80.5 | 99.8 | > 62.4 | > 91.1 | 31.3 | > 100 | > 100 | > 100 | > 100
7 | NS(=O)(=O)c1nnc(NS(=O)(=O)c2ccc([N+](=O)[O-])cc2)s1 | > 100 | > 100 | > 100 | > 100 | > 100 | > 100 | > 100 | > 100 | > 100 | > 100
8 | CC(CC[C@@]1(O)OC2C[C@H]3[C@@H]4CC[C@H]5CC(OC6OC(CO)C(OC7OC(CO)C(O)C(OC8OCC(O)C(O)C8O)C7OC7OC(CO)C(O)C(O)C7O)C(O)C6O)[C@H](O)CC5(C)[C@H]4CCC3(C)C2[C@@H]1C)COC1OC(CO)C(O)C(O)C1O (stereo not given in full) | > 50 | > 50 | 17.2 | 17.9 | 43.8 | > 50 | 15.9 | > 50 | > 50 | 17.7
9 | CCNC(=S)NNC(=O)CSc1nc2ccc(I)cc2c(=O)n1Cc1ccccc1 | > 100 | > 100 | > 81 | > 100 | 1.65 | > 100 | > 100 | > 67.8 | > 100 | > 100
10 | CCOC(=O)C1(C(=O)OCC)C=C(c2ccccc2)N(C2OC(COC(C)=O)C(OC(C)=O)C(OC(C)=O)C2OC(C)=O)C1=S (stereo not given) | > 100 | > 100 | > 100 | > 100 | > 100 | > 100 | > 100 | > 100 | > 100 | > 100
11 | Cc1cc(C)nc(NS(=O)(=O)c2ccc(NC(=O)c3cc([N+](=O)[O-])cc([N+](=O)[O-])c3)cc2)n1 | > 100 | > 100 | > 100 | > 100 | > 100 | > 100 | > 100 | > 100 | > 100 | > 100
12 | O=c1[nH]c(=O)n([C@@H]2O[C@H](CO)[C@@H](O)[C@@H]2F)cc1I | > 100 | > 100 | > 100 | > 100 | > 100 | > 100 | > 100 | > 100 | > 100 | > 100
13 | NC(N)=N/N=C/c1c(-c2cc([N+](=O)[O-])c(Cl)cc2Cl)nc2n1CCS2 | 36.4 | 74.3 | > 100 | > 100 | > 100 | > 100 | 48.3 | 57.9 | > 100 | > 100
14 | N#Cc1c(-c2ccccc2)cc(Nc2ccc(Cl)cc2)n2c1nc1ccccc12 | > 100 | > 100 | > 100 | > 58.2 | > 30.7 | > 65.5 | > 100 | > 100 | 97.5 | 4.98
15 | Nc1c2cc3ccc2nc2ccc(cc12)OCCOCCOCCOCCOCCOCCO3 | > 10 | > 10 | > 10 | > 10 | > 10 | > 10 | > 10 | > 10 | > 10 | > 10
